# Laboratory results: BindingDB's records for doi:10.1016/j.bmc.2006.10.028 (Kirin Brewery, 2006)
# Experiment: Inhibition of MCP1-induced chemotaxis in U937 cells overexpressing CCR2
row,Structure (SMILES),IC50 [µM]
1,Clc1cccc(CN2CCC(Nc3cccc4cnccc34)C2)c1 (stereo unspecified) [N-(1-(3-chlorobenzyl)pyrrolidin-3-yl)isoquinolin-5-amine],14
2,Nc1cccc(CN2CCC(Nc3cccc4cnccc34)C2)c1 (stereo unspecified) [N-(1-(3-aminobenzyl)pyrrolidin-3-yl)isoquinolin-5-amine],20
3,Clc1ccc(CN2CCCC(Nc3cccc4cnccc34)C2)cc1 (stereo unspecified) [N-(1-(4-chlorobenzyl)piperidin-3-yl)isoquinolin-5-amine],23
4,Clc1ccccc1CN1CCC(Nc2cccc3cnccc23)C1 (stereo unspecified) [N-[1-(2-chlorobenzyl)-3-pyrrolidyl]-N-(5-isoquinolyl)amine],17
5,Nc1cccc(CN2CC[C@H](Nc3cccc4cnccc34)C2)c1 [(3S)-N-[1-(3-aminobenzyl)-3-pyrrolidyl]-N-(5-isoquinolyl)amine],30
6,Clc1ccc(CN2CCC(Nc3cccc4cnccc34)C2)cc1 (stereo unspecified) [N-(1-(4-chlorobenzyl)pyrrolidin-3-yl)isoquinolin-5-amine],11
7,Nc1cccc(CN2CC[C@@H](Nc3cccc4cnccc34)C2)c1 [(3R)-N-[1-(3-aminobenzyl)-3-pyrrolidyl]-N-(5-isoquinolyl)amine],1
8,Nc1ccccc1CN1CCC(Nc2cccc3cnccc23)C1 (stereo unspecified) [N-[1-(2-aminobenzyl)-3-pyrrolidyl]-N-(5-isoquinolyl)amine],14
9,Fc1ccc(CN2CCC(Nc3cccc4cnccc34)C2)cc1 (stereo unspecified) [N-[1-(4-fluorobenzyl)-3-pyrrolidyl]-N-(5-isoquinolyl)amine],22
10,"Fc1cccc(F)c1CN1CCC(Nc2cccc3cnccc23)C1 (stereo unspecified) [N-(1-(2,6-difluorobenzyl)pyrrolidin-3-yl)isoquinolin-5-amine]",10
11,Nc1ccc(CN2CCC(Nc3cccc4cnccc34)C2)cc1 (stereo unspecified) [N-(1-(4-aminobenzyl)pyrrolidin-3-yl)isoquinolin-5-amine],15
